Experiments:
[1] = test system: T cells within the PBMC preparation; assay: Effect of PDE4 inhibitors on T-cell proliferation (3H-thymidine incorporation, anti-CD3 stimulated PBMC); type: cell-based; conditions: Homo sapiens, 120 h, monoclonal antibody to CD3, 5 days, read-out: T-cell prol. IC50
Experimental: Peripheral blood mononuclear cells (PBMC) were isolated from the blood of healthy donors by the Lymphoprep gradient method. 200000 PBMC/well were cultured in RPMI1640 culture medium containing 5% heat inactivated human serum (AB pool) for 5 days at 37° C. and 10% CO2 in 96 well flat bottom microtiter plates. The T cells within the PBMC preparation were selectively stimulated with an monoclonal antibody to CD3. Cultures were set up as triplicates including a control group receiving no treatment. PDE4 inhibitors were dissolved in DMSO at 10^−2 M and diluted in culture medium. Control cultures were treated with DMSO equivalent to the inhibitor concentration. 18 hrs before the end of the assay, ^3H-thymidine was added to the cultures. The incorporation of radioactivity into the cells was then measured in a beta-counter.
The data of at least three independent experiments were calculated as percent inhibition of the control (mean ±SEM) without inhibitor.

[2] = test system: IL-2; assay: IL-2 production in PBMC (ELISA); type: cell-based; conditions: Homo sapiens, activator mab anti-CD3, 24 h, read-out: IL2 T-cell IC50
Experimental: (§1) Peripheral blood mononuclear cells (PBMC) were isolated from the blood of healthy donors by the Lymphoprep gradient method. 200000 PBMC/well were cultured in RPMI1640 culture medium containing 5% heat inactivated human serum ([…]). at 37° C. and 10% CO2 in 96 well flat bottom microtiter plates. Cultures were set up as triplicates including a control group. Solutions of PDE4 inhibitors were prepared in DMSO at 10^−2 M and diluted in culture medium. Control cultures were treated with concentrations of DMSO equivalent to the inhibitor concentrations.
(§2) The culture supernatants of three independent experiments were pooled and cytokine activity in the supernatant was measured with commercially available ELISA test kits.
(§3) The data were calculated as percent inhibition/stimulation of the control without the compound and the IC50 value or EC50 value in case of stimulation was determined thereof.

[3] = test system: IL-12; assay: IL-12 production in PBMC (ELISA); type: cell-based; conditions: Homo sapiens, activator SAC + IFNγ, 48 h, read-out: IL12 macrophage IC50
Experimental: as §1, §2, §3

[4] = test system: TNF-α; assay: TNF-α production in PBMC (ELISA); type: cell-based; conditions: Homo sapiens, activator LPS, 48 h, read-out: TNF-α macrophage IC50
Experimental: as §1, §2, §3

[5] = test system: IL-10; assay: IL-10 production in PBMC (ELISA); type: cell-based, human; conditions: activator LPS, 48 h, stimulation; for EC50: Homo sapiens, read-out: IL10 macrophage EC50
Experimental: as §1, §2, §3

[6] = test system: IFN-γ; assay: IFN-γ production in PBMC (ELISA); type: cell-based; conditions: Homo sapiens, activator mab anti-CD3, 48 h, read-out: IFN-γ T-cell IC50
Experimental: as §1, §2, §3

| IC50 [2] [nM] | IC50 [3] [nM] | IC50 [4] [nM] | EC50 [5] [nM] | IC50 [6] [nM] | IL10 macrophage EC50 [5] | SMILES | IC50 [1] [nM] |
| --- | --- | --- | --- | --- | --- | --- | --- |
| 300 | 6 | 30 | 1 | 50 |  | CCOC(=O)Nc1ccc(CN2N=C(c3ccc(OC)c(OCC)c3)CCC2=O)cc1 [EMD 94360] | 20 |
| 200 | 0.5 | 9 | 20 | 10 |  | CCOc1cc(C2=NN(Cc3ccc(NC(=O)c4cccnc4)cc3)C(=O)SC2)ccc1OC [EMD 95832] | 50 |
| 2 |  | 3 |  | 7 | no effect | CCOc1cc(C2=NN(C(=O)c3ccc(NC(=O)c4cccnc4)cc3)CCC2)ccc1OC [EMD 125025] | 6 |
| 60 |  | 30 | 8 | 8 |  | CCOC(=O)Nc1ccc(C(=O)N2CCCC(c3ccc(OC)c(OCC)c3)=N2)cc1 [EMD 125059] | 40 |
| 3 |  | 2 | 1 | 5 |  | CCOc1cc(C2=NN(C(=O)c3ccc(NC(=O)c4ccc(OC)cc4)cc3)CCC2)ccc1OC [EMD 219901] | 7 |
| 700 | > 100 | 600 | 50 | 1000 |  | COc1ccc(C2CNC(=O)C2)cc1OC1CCCC1 (stereo not drawn) [Rolipram, reference compound] | 300 |
